According to PubChem BioAssay (NCI):
Where “and” joins values, the source holds several entries; their conditions need not be identical. Equal values may be shown once.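 Protocol summary: plate cells (96-well), add compound at 5 concentrations, incubate 48 h, interpolate endpoints linearly. At the GI50, growth is halved. TGI: concentration producing complete growth inhibition.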

What was measured:
Experiment in all cases: DTP human tumour cell line panel, 48 h
SN12C renal = test system: SN12C renal
SK-MEL-28 melanoma = test system: SK-MEL-28 melanoma
NCI-H23 lung = test system: NCI-H23 lung
NCI-H522 lung = test system: NCI-H522 lung
RXF 393 renal = test system: RXF 393 renal
COLO 205 colon = test system: COLO 205 colon
HCT-116 colon = test system: HCT-116 colon
OVCAR-3 ovarian = test system: OVCAR-3 ovarian
HCT-15 colon = test system: HCT-15 colon
MCF7 breast = test system: MCF7 breast

SMILES	TGI (SN12C renal) [µM]	TGI (SK-MEL-28 melanoma) [µM]	TGI (NCI-H23 lung) [µM]	TGI (NCI-H522 lung)	TGI (RXF 393 renal) [µM]	TGI (COLO 205 colon)	TGI (HCT-116 colon) [µM]	TGI (OVCAR-3 ovarian)	TGI (HCT-15 colon) [µM]	GI50 (HCT-116 colon)	GI50 (SN12C renal)	GI50 (NCI-H23 lung)	GI50 (MCF7 breast) [µM]	TGI (MCF7 breast) [µM]	GI50 (HCT-15 colon)	GI50 (COLO 205 colon)	GI50 (SK-MEL-28 melanoma) [µM]	GI50 (OVCAR-3 ovarian)	GI50 (NCI-H522 lung)	GI50 (RXF 393 renal) [µM]
N#Cc1ccc(Sc2nc3ccccc3[nH]2)cc1	> 100	> 100	> 100	> 100 µM	> 100	> 100 µM														
CCOC(=O)C1(C)CCC(C(C(=O)O)C(=O)O)CC1=O (stereo not given)	> 100	> 100		> 100 µM	> 100	> 100 µM	> 100	> 100 µM	> 100											
COc1cc(-c2nccc3[nH]c(-c4ccc5cc[nH]c5c4)nc23)cc(OC)c1OC	9.93		4.2			< 0.01 µM	1.13		1.31	< 0.01 µM	< 0.01 µM	< 0.01 µM	0.0568	2.87	< 0.01 µM	< 0.01 µM				
Nc1nc(=S)c2c(ncn2CCO)[nH]1	> 100	> 100		> 100 µM	> 100	> 100 µM	> 100	> 100 µM	> 100											
CCOC(=O)C1=C(NC)OCC1=O	> 100	> 100	> 100	> 100 µM	> 100	> 100 µM	> 100	> 100 µM	> 100											
COc1ccccc1CNCCN1C(=O)c2ccc3c4c(ccc(c24)C1=O)C(=O)N(CCNCc1ccccc1OC)C3=O	0.701	2.87	0.394	0.314 µM	0.397	0.345 µM	0.406	0.676 µM		0.189 µM	0.248 µM	0.19 µM	0.198	0.492		0.169 µM	1.46	0.207 µM	0.137 µM	0.18
COCCN(CCOC)c1nc(-c2ccccc2)nc2ccccc12	> 100	> 100	54.7	52.7 µM	> 100	> 100 µM	> 100	> 100 µM		24.5 µM	29.1 µM	26.6 µM	20.6	55.7		28.2 µM	29.2	31.3 µM	21.6 µM	34.6
O=C(COc1ccc(/C=C2\Oc3ccccc3C2=O)cc1)Nc1nc2ccccc2s1	> 100	> 100	> 100	0.487 µM		> 89.8 µM	> 100	4.78 µM	> 100	19.3 µM	10.5 µM	18.8 µM	35.6	> 100	33.8 µM	32 µM	37.5	1.9 µM	0.207 µM	
c1ccc(C(c2ccccc2)c2ccccn2)cc1	> 100	> 100	> 100			> 100 µM	> 100	> 100 µM	> 100											
COc1cc(/C=C/c2csnn2)cc(OC)c1OC	> 100	> 100	> 100	> 100 µM	> 100		> 100	> 100 µM	> 100											
O=C1NC(=O)C2C(=O)NC(=O)C1C2Cc1ccco1 (stereo not given)	> 100	> 100	> 100	> 100 µM	> 100	> 100 µM		> 100 µM	> 100											
CCCC(=O)CC(C)C(=O)C(=O)NC12CC3CC(CC(C3)C1)C2 (stereo not given)	> 100	> 100	> 100	> 100 µM	> 100	> 100 µM		> 100 µM	> 100											
N#CC1CC(c2ccccc2)Nc2cc(Cl)ccc2N1 (stereo not given)	> 100	> 100	> 83.7	21.7 µM	98.7	> 83.4 µM	> 100	57.1 µM	> 100											
COc1ccc(/C=C2\C(=O)N(NC(C)=O)c3ccccc32)cc1	> 100	> 100	> 100			> 100 µM	> 100	> 100 µM	> 100											
CNCc1ccc(-c2cc(-c3nc(-c4ccc(S(=O)(=O)C(C)C)cc4)cnc3N)on2)cc1	33.4	3.21	28.3	39.2 µM		24.1 µM	2.3	10.6 µM	2.3	1.08 µM	8.58 µM	0.676 µM	0.0946	1.82	0.519 µM	10.8 µM	1.72	2.93 µM	14.7 µM	
COc1cc(/C=C2\NC(=O)C(Cc3cc(OC)c(OC)c(C)c3OC)N(C(C)=O)C2=O)c(OC)c(C)c1OC (stereo not given)	> 100	> 100	> 100	79.2 µM	> 100	> 100 µM	> 100	> 100 µM												
O=C1N[C@@H]2CCCC[C@@H]2C12CCCCC2	> 100	> 100	> 100		> 100		> 100	> 100 µM												
CC(=O)OCC(=O)[C@@]1(O)CC[C@H]2[C@@H]3C[C@H](C)C4=CC(=O)C=C[C@]4(C)[C@@]3(F)[C@@H](O)C[C@@]21C		> 100	> 100	> 100 µM	> 100	> 100 µM	> 100	> 100 µM	> 100											
CC12OC(=O)C(C#N)C1(C)C1C(=O)CCCC12 (stereo not given)	> 100	> 100	> 100		> 100	> 100 µM	> 100	> 100 µM	> 100											
Cc1ccccc1C(CCCO)C(=O)O (stereo not given)	> 100	> 100	> 100	> 100 µM	> 100	> 100 µM	> 100	> 100 µM	> 100											

SMILES	TGI (SN12C renal) [µM]	TGI (SK-MEL-28 melanoma) [µM]	TGI (NCI-H23 lung) [µM]	TGI (NCI-H522 lung)	TGI (RXF 393 renal) [µM]	TGI (COLO 205 colon)	TGI (HCT-116 colon) [µM]	TGI (OVCAR-3 ovarian)	TGI (HCT-15 colon) [µM]	GI50 (HCT-116 colon)	GI50 (SN12C renal)	GI50 (NCI-H23 lung)	GI50 (MCF7 breast) [µM]	TGI (MCF7 breast) [µM]	GI50 (HCT-15 colon)	GI50 (COLO 205 colon)	GI50 (SK-MEL-28 melanoma) [µM]	GI50 (OVCAR-3 ovarian)	GI50 (NCI-H522 lung)	GI50 (RXF 393 renal) [µM]
CC1NOC(=O)C1N=Nc1ccc(Cl)cc1Cl (stereo not given)	49.1	> 100	64.2	35.1 µM	46.1	39 µM	52.5	36.9 µM	38.3											
CCc1cccc(CC)c1NC(=O)/C(Cl)=C(/Cl)C(=O)O	45.9	50.9	66.5	29.1 µM	47.2	30.3 µM	50.3	48.1 µM	37.3											
CC(=O)[CH-]C(=O)c1ccccc1.[C-]#[O+].[C-]#[O+].[Ir]	> 100	> 100	> 100		> 100	> 100 µM			> 100		> 100 µM	> 100 µM			> 100 µM	> 100 µM	> 100			> 100
O=[N+]([O-])c1ccc(-c2ccc(C3=Nn4c(CNc5ccccc5Cl)nnc4SC3)o2)cc1	> 100	> 100	> 100	> 100 µM		> 100 µM	> 100	> 100 µM	> 100											
OC(c1ccccc1Br)(c1ccccc1Br)C(F)(F)F	38.6	95.5	78.3	26.1 µM	34.5	33.1 µM	39.4	51.7 µM	> 100											
COc1ccc2nc(NC(=O)C(=O)CC(=O)c3ccc([N+](=O)[O-])cc3)sc2c1	> 100	> 100	> 100	> 100 µM		> 100 µM	> 100	> 100 µM												
ClCCOCCn1cnc2c(Cl)nc(Cl)nc21	31.8	20.1	29.1	50 µM		27.5 µM	25.1	15.4 µM	18.9	10.8 µM	16.2 µM	12.8 µM	3.57	21.4	4.89 µM	13.2 µM	7.09	4.68 µM	20 µM	
COc1cc(/C=C/c2cc(/C=C/c3ccc(O)c(OC)c3)n(C(=O)c3ccccc3Br)n2)ccc1O	> 100	8.71	16.9	6.32 µM		4.63 µM	> 100		> 100	3.06 µM	2.22 µM	2.68 µM	3	13	2.8 µM	2.31 µM	2.57		1.38 µM	
CC(=O)Nc1ccc(C2CC(c3ccc([N+](=O)[O-])cc3)=Nc3ccccc3S2=O)cc1 (stereo not given)	72.2	43.7	53.9	34.7 µM	32.3	44.9 µM		54.7 µM	50.2											
OCC1CC[N-]CC1.OCC1CC[N-]CC1.[Cl][Pt+2]([Cl])([Cl])[Cl]				46.3 µM			86.5			25.6 µM	30.8 µM	28.6 µM	26.2		27.8 µM	29.3 µM	60	45.9 µM	9.53 µM	
O=C1C2C3C=CC(C2C(=O)N1CO)C1C2C(=O)N(CO)C(=O)C2C31 (stereo not given)	> 100	> 100	> 100	> 100 µM	> 100	> 66.9 µM	> 59.8	> 100 µM	> 62.9											
C[C@H](C(=O)O)C(=O)NC(=O)N(Cc1ccccc1)N=O	> 100	> 100				> 100 µM	> 100	> 100 µM	> 100											
CC[C@H](C)[C@H](NC(=O)[C@H]1CCCCN1C)C(=O)N(C)[C@H](C[C@@H](OC(C)=O)c1nc(C(=O)NC23CC(C(=O)OC)(C2)C3)cs1)C(C)C	> 32.5	> 32.5	> 32.5	0.000901 µM and < 0.00325 µM		0.0299 µM and 0.0339 µM	> 32.5	0.0158 µM and < 0.00325 µM	> 32.5	0.000878 µM and 0.00325 µM	0.000654 µM and 0.00325 µM	0.00511 µM and 0.00325 µM		> 32.5	0.00333 µM and 0.00325 µM	0.00152 µM and 0.00325 µM		0.000256 µM and < 0.00325 µM	0.000156 µM and < 0.00325 µM	
CC(=O)Oc1c(C(=O)[O-])cc(C(C)C)cc1C(C)C.CC(=O)Oc1c(C(=O)[O-])cc(C(C)C)cc1C(C)C.CC(=O)Oc1c(C(=O)[O-])cc(C(C)C)cc1C(C)C.CC(=O)Oc1c(C(=O)[O-])cc(C(C)C)cc1C(C)C.[Cu+2].[Cu+2]	65.9	33.4	52.7	33.3 µM		42.5 µM	> 100	65.9 µM	> 100	28.7 µM	19.8 µM	20.1 µM	21	65.2	27.5 µM	21 µM	17.9	27.3 µM	18.5 µM	
O=C(CCCC(=O)Nc1ccc(Cl)cc1Cl)CC(=O)c1ccc2ccccc2c1	> 100	> 100	> 100		> 100	> 100 µM	> 100	> 100 µM	> 100											
COc1ccc2c(C(=O)O)cc3ccccc3c2c1OC	53.1	33.6	48	26.8 µM	28.6	44.2 µM	32.6	32.7 µM												
OCCCCC#Cc1ccccc1C#Cc1cccc(C(F)(F)F)c1	33	25	31.5	33.6 µM		36.3 µM	49.8	31.6 µM	30.8	20.9 µM	18.9 µM	16.4 µM	21.2	42.7	16.3 µM	19.2 µM	12	16.8 µM	16.6 µM	
COc1ccc(-c2nc3ccc(Cc4ccc5nc(-c6ccc(OC)cc6)[nH]c5c4)cc3[nH]2)cc1	2.29	2.49	2.81	0.0535 µM		0.184 µM	0.14	0.0503 µM		0.0339 µM	0.165 µM	0.0516 µM	0.0254	0.424		< 0.01 µM	0.252	0.0217 µM	0.0171 µM	
CCCCCC/C=C\CCCCCCCCC(=O)c1cccc(OC)c1OC	> 100	> 100	> 100	> 100 µM	68.3	> 100 µM	> 100		> 100											
